Measured values as given in patent US4886817A, “Imidazolidinones as brain activators” (Tanabe Seiyaku Co., Ltd., priority 1986, dated 1989).

Legend:
[1] = Preventive effect on maximum electroshock-induced convulsion; type: in vivo, male Std/ddY mice; conditions: 100 mg/kg, oral, 1 hour before electroshock
Source text: (Preventive effect on maximum electroshock-induced convulsion)
One hour after oral administration of a test compound to male Std/ddY mice, maximum electroshock (AC 900 V, 25 mA, 0.15 second) was delivered to said mice through corneal electrodes from an electrical stimulator.

[2] = Gastric juice secretion in pylorus ligated rats; type: in vivo; conditions: 30 mg/kg, intraperitoneal, 5 hours after administration
Source text: (§1) In addition, Compound (I) and a salt thereof may have also an inhibitory effect on gastric juice secretion and may be used for therapy and prophylaxy of peptic ulcer. […] Further, the compound of the present invention is low in toxicity and has high safety as pharmaceuticals.

[3] = KCN-induced cerebral energy metabolism disorders; type: in vivo
Source text: (§2) The compound (I) of the present invention and a salt thereof are useful as a cerebral activator. More particularly, Compound (I) and a salt thereof can effectively prolong the survival time of mice suffering from KCN-induced cerebral anoxia or hypobaric hypoxia, and show potent protective action against brain ischemia. Compound (I) and a salt thereof can also improve KCN-induced cerebral energy metabolism disorders. Further, Compound (I) and a salt thereof improve scopolamine-induced amnesia, and show potent anticonvulsive, AChE (acetylchline esterase) inhibitory and GABA-mimetic or GABA-potentiative actions. […] Based on these therapeutic effects, Compound (I) and a salt thereof can be used as a cerebral metabolism activator and/or a nootropic drug.

[4] = Spontaneous locomotion in mice which received apomorphine; type: in vivo; conditions: 45 mg/kg, oral; apomorphine 0.03 or 0.1 mg/kg, s.c.
Source text: Compound (I) of the present invention and a salt thereof can also be used as antidepressants because it can effectively shorten the immobility time of mice during forced swimming thereof and also increase spontaneous locomotor activity.

Acute toxicity (LD50) = conditions: mouse, in vivo; oral, male Std/ddY mice, estimated 7 days after administration
Source text: as §1

[5] = Survival time of mice under hypobaric hypoxia (closed container, reduced pressure); type: in vivo; conditions: 30 mg/kg (p.o.); pressure 165 mmHg
Source text: as §2

SMILES | inhibition of tonic extensive convulsion induced by maximum electroshock [1] | further results
O=C1N(C/C=C/c2cccc(Cl)c2)CCN1c1ccncc1 [compound 5, (E)-1-(3-chlorocinnamyl)-3-(4-pyridyl)-2-imidazolidinone] | completely inhibited | –
O=C1N(C/C=C/c2ccccc2Cl)CCN1c1ccncc1 [compound 6, (E)-1-(2-chlorocinnamyl)-3-(4-pyridyl)-2-imidazolidinone] | completely inhibited | –
Cl.O=C1N(C/C=C/c2ccccc2)CCN1c1cccnc1 [compound 3, (E)-1-cinnamyl-3-(3-pyridyl)-2-imidazolidinone hydrochloride] | completely inhibited | decrease in gastric juice secretion [2]: ≥ 42%
Cc1cccc(/C=C/CN2CCN(c3ccncc3)C2=O)c1 [compound 7, (E)-1-(3-methylcinnamyl)-3-(4-pyridyl)-2-imidazolidinone] | completely inhibited | –
O=C1N(C/C=C/c2ccc(Cl)cc2)CCN1c1ccncc1 [compound 2, (E)-1-(4-chlorocinnamyl)-3-(4-pyridyl)-2-imidazolidinone] | completely inhibited | –
O=C1N(C/C=C/c2ccccc2)CCN1c1ncccn1 [compound 4, (E)-1-cinnamyl-3-(2-pyrimidinyl)-2-imidazolidinone] | completely inhibited | –
O=C1N(C/C=C\c2ccccc2)CCN1c1ccncc1 [compound 9, (Z)-1-cinnamyl-3-(4-pyridyl)-2-imidazolidinone] | completely inhibited | –
O=C1N(C/C=C/C=C/c2ccccc2Cl)CCN1c1ccncc1 [(2E,4E)-1-[5-(2-chlorophenyl)-2,4-pentadienyl]-3-(4-pyridyl)-2-imidazolidinone] | – | decrease in gastric juice secretion [2]: ≥ 42%
O=C1N(C/C=C/c2ccc(Cl)cc2)CCN1c1cccnc1 [compound 1, (E)-1-(4-chlorocinnamyl)-3-(3-pyridyl)-2-imidazolidinone] | completely inhibited | –
O=C1N(C/C=C/c2ccccc2)CCN1c1cccnc1 [(E)-1-cinnamyl-3-(3-pyridyl)-2-imidazolidinone] | – | KCN-induced cerebral metabolism disorders [3]: improve the KCN-induced cerebral metabolism disorders; decrease in energy metabolism-relating substances (ATP, creatine-P, glucose or glycogen in the brain) induced by KCN [3]: inhibit the decrease; spontaneous locomotion in mice which received apomorphine [4]: significant increase; LD50 at 168 h (Acute toxicity (LD50)): > 1500 mg/kg; survival time of mice which suffered from hypobaric hypoxia [5]: significantly prolong the survival time
O=C1N(CCC/C=C/c2ccccc2)CCN1c1ccncc1 [compound 8, (E)-1-(5-phenyl-4-pentenyl)-3-(4-pyridyl)-2-imidazolidinone] | completely inhibited | –
